These results are taken from US12209087B2, “AKT1 modulators” (Alterome Therapeutics, Inc., priority 2022, dated 2025).

In the first assay the target is T1, full length AKT E17K (Homo sapiens, UniProt P31749, E17K).
T1 construct: host or cells: HEK-293 (ATCC CRL-1573)
T1 sequence (P31749 whole entry E17K): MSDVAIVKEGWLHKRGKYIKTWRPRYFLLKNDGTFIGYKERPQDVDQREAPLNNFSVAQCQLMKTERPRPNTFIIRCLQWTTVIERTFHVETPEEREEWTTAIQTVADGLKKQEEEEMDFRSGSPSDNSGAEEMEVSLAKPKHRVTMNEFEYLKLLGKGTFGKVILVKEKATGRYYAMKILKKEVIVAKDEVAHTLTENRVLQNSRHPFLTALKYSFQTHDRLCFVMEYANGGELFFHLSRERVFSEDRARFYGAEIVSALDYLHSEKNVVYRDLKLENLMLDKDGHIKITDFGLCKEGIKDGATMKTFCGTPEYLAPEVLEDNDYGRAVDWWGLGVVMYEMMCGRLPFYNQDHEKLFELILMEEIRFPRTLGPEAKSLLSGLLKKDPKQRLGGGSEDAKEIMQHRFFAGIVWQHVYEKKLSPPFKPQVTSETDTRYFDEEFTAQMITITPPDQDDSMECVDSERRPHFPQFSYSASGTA
Kind of assay: NanoBRET Target Engagement (TE) Assay. The assay is classed as cell-based. Conditions: competitive displacement of tracer in cells, read-out: AKT1 E17K IC50. In outline: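 Compound and tracer incubated 2 h before luminescence at donor 450 nm and acceptor 600 nm, with extracellular signal inhibited. EC50 by sigmoidal variable-slope regression.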
(In general: Bioluminescence resonance energy transfer reports proximity on the nanometre scale.)
By IC50 is commonly meant the concentration that inhibits the measured activity by half. For `CC(C)n1ncc(-c2ccc3nc(-c4nccnc4N)n(-c4ccc(CN5CCC(Nc6ccnc(C#N)n6)CC5)cc4)c3n2)n1` [Example 630, 4-((1-(4-(2-(3-Aminopyrazin-2-yl)-5-(2-isopropyl-2H-1,2,3-triazol-4-yl)-3H-imidazo[4,5-b]pyridin-3-yl)benzyl)piperidin-4-yl)amino)pyrimidine-2-carbonitrile], the IC50 was less than 15 nM.
The same measure, in the same setting: the figure for `CC(C)OC(=O)c1ccc2nc(-c3cccnc3N)n(-c3ccc(CN4CCC(Nc5ccnc(C#N)n5)CC4)cc3)c2n1` [Example 531, Isopropyl 2-(2-aminopyridin-3-yl)-3-(4-((4-((2-cyanopyrimidin-4-yl)amino)piperidin-1-yl)methyl)phenyl)-3H-imidazo[4,5-b]pyridine-5-carboxylate] is less than 15 nM.
Regarding `[2H]C([2H])([2H])Oc1ccc2nc(-c3cccnc3N)n(-c3ccc(CN4CCC(Nc5ccnc(C#N)n5)CC4)cc3)c2n1` [Example 427, 4-((1-(4-(2-(2-Aminopyridin-3-yl)-5-(methoxy-d3)-3H-imidazo[4,5-b]pyridin-3-yl)benzyl)piperidin-4-yl)amino)pyrimidine-2-carbonitrile], the IC50 was less than 15 nM.
On the same count and under the same terms, the figure for `CC(C)(C)c1ccc2nc(-c3cccnc3N)n(-c3ccc(CN4CCC(Nc5ccnc(C#N)n5)CC4)cc3)c2n1` [Example 396, 4-((1-(4-(2-(2-Aminopyridin-3-yl)-5-(tert-butyl)-3H-imidazo[4,5-b]pyridin-3-yl)benzyl)piperidin-4-yl)amino)pyrimidine-2-carbonitrile] is 15 to 60 nM.
As for `COc1cnccc1-c1ccc2nc(-c3cccnc3N)n(-c3ccc(CN4CCC(Nc5ccnc(C#N)n5)CC4)cc3)c2n1` [Example 515, 4-((1-(4-(2-(2-Aminopyridin-3-yl)-5-(3-methoxypyridin-4-yl)-3H-imidazo[4,5-b]pyridin-3-yl)benzyl)piperidin-4-yl)amino)pyrimidine-2-carbonitrile], the concentration for half-maximal inhibition (IC50) is less than 15 nM.
For the compound `N#Cc1nccc(NC2CCN(Cc3ccc(-n4c(-c5cccnc5N)nc5ccc(C6CCOC6)nc54)cc3)CC2)n1` (stereo not drawn) [Example 417, 4-((1-(4-(2-(2-Aminopyridin-3-yl)-5-(tetrahydrofuran-3-yl)-3H-imidazo[4,5-b]pyridin-3-yl)benzyl)piperidin-4-yl)amino)pyrimidine-2-carbonitrile], the IC50 is less than 15 nM.
For the compound `N#Cc1nccc(NC2CCN(Cc3ccc(-n4c(-c5cccnc5N)nc5ccc(-c6cccnc6F)nc54)cc3)CC2)n1` [Example 558, 4-((1-(4-(2-(2-Aminopyridin-3-yl)-5-(2-fluoropyridin-3-yl)-3H-imidazo[4,5-b]pyridin-3-yl)benzyl)piperidin-4-yl)amino)pyrimidine-2-carbonitrile], the half-maximal inhibitory concentration (IC50) was less than 15 nM.
On the same count and under the same terms, the same measure for `CCOc1ccc(-c2ccc3nc(-c4cccnc4N)n(-c4ccc(CN5CCC(Nc6ccnc(C#N)n6)CC5)cc4)c3n2)cn1` [Example 584, 4-((1-(4-(2-(2-Aminopyridin-3-yl)-5-(6-ethoxypyridin-3-yl)-3H-imidazo[4,5-b]pyridin-3-yl)benzyl)piperidin-4-yl)amino)pyrimidine-2-carbonitrile]: less than 15 nM.

The same assay, now with this note: competitive tracer displacement in living cells, read-out: AKT1 E17K IC50.
Regarding `N#Cc1ccnc(C(=O)NC2CCN(Cc3ccc(-n4c(-c5cccnc5N)nc5ccc(-c6ccccc6)nc54)cc3)CC2)c1` [Example 150, N-(1-(4-(2-(2-Aminopyridin-3-yl)-5-phenyl-3H-imidazo[4,5-b]pyridin-3-yl)benzyl)piperidin-4-yl)-4-cyanopicolinamide], the IC50 fell in the range of 60 to 600 nM.
In the case of `N#Cc1cnnc(N2CCN(Cc3ccc(-n4c(-c5cccnc5N)nc5cccnc54)cc3)CC2)c1` [Example 22, 6-(4-(4-(2-(2-Aminopyridin-3-yl)-3H-imidazo[4,5-b]pyridin-3-yl)benzyl)piperazin-1-yl)pyridazine-4-carbonitrile], the IC50 lay in the range of 600 to 10000 nM.
Still for that read-out and setting: the same measure for `N#Cc1cnccc1C(=O)NCc1ccc(-n2c(-c3cccnc3N)nc3cccnc32)cc1` [Example 99, N-(4-(2-(2-Aminopyridin-3-yl)-3H-imidazo[4,5-b]pyridin-3-yl)benzyl)-3-cyanoisonicotinamide]: 600 to 10000 nM; for `N#Cc1cncc(NCc2ccc(-n3c(-c4cccnc4N)nc4cccnc43)cc2)n1` [Example 133, 6-((4-(2-(2-Aminopyridin-3-yl)-3H-imidazo[4,5-b]pyridin-3-yl)benzyl)amino)pyrazine-2-carbonitrile]: 600 to 10000 nM.
On to `N#Cc1cc(N2C[C@H]3C[C@@H]2CN3Cc2ccc(-n3c(-c4cccnc4N)nc4ccc(-c5ccccc5)nc43)cc2)ncn1` [Example 218, 6-((1R,4R)-5-(4-(2-(2-Aminopyridin-3-yl)-5-phenyl-3H-imidazo[4,5-b]pyridin-3-yl)benzyl)-2,5-diazabicyclo[2.2.1]heptan-2-yl)pyrimidine-4-carbonitrile], for which the IC50 is 15 to 60 nM.
Take `N#Cc1nccc(NC2CCN(Cc3ccc(-n4c(-c5cccnc5N)nc5ccc(N6CCOCC6)nc54)cc3)CC2)n1` [Example 239, 4-((1-(4-(2-(2-Aminopyridin-3-yl)-5-morpholino-3H-imidazo[4,5-b]pyridin-3-yl)benzyl)piperidin-4-yl)amino)pyrimidine-2-carbonitrile]: the IC50 is less than 15 nM.
On to `N#Cc1ccncc1C(=O)NCc1ccc(-n2c(-c3cccnc3N)nc3cccnc32)cc1` [Example 100, N-(4-(2-(2-Aminopyridin-3-yl)-3H-imidazo[4,5-b]pyridin-3-yl)benzyl)-4-cyanonicotinamide], for which the concentration for half-maximal inhibition (IC50) was 600 to 10000 nM.
With `N#Cc1ccnc(NC2CCN(Cc3ccc(-n4c(-c5cccnc5N)nc5ccc(-c6ccccc6F)nc54)cc3)CC2)n1` [Example 313, 2-((1-(4-(2-(2-Aminopyridin-3-yl)-5-(2-fluorophenyl)-3H-imidazo[4,5-b]pyridin-3-yl)benzyl)piperidin-4-yl)amino)pyrimidine-4-carbonitrile], the IC50 was less than 15 nM.
Regarding `N#Cc1nc2c(C(=O)NCc3ccc(-n4c(-c5cccnc5N)nc5cccnc54)cc3)cc(F)cc2s1` [Example 174, N-(4-(2-(2-aminopyridin-3-yl)-3H-imidazo[4,5-b]pyridin-3-yl)benzyl)-2-cyano-6-fluorobenzo[d]thiazole-4-carboxamide], the IC50 was in the range of 15 to 60 nM.
On the same count and under the same terms, the figure for `N#Cc1cncc(C(=O)NC2CCN(Cc3ccc(-n4c(-c5cccnc5N)nc5cccnc54)cc3)CC2)c1` [Example 26, N-(1-(4-(2-(2-aminopyridin-3-yl)-3H-imidazo[4,5-b]pyridin-3-yl)benzyl)piperidin-4-yl)-5-cyanonicotinamide] is 600 to 10000 nM.
With `N#Cc1ccncc1C(=O)N1CCN(Cc2ccc(-n3c(-c4cccnc4N)nc4cccnc43)cc2)CC1` [Example 155, 3-(4-(4-(2-(2-Aminopyridin-3-yl)-3H-imidazo[4,5-b]pyridin-3-yl)benzyl)piperazine-1-carbonyl)isonicotinonitrile], the IC50 fell in the range of 600 to 10000 nM.
In the case of `N#Cc1nccc(NC2CCN(Cc3ccc(-n4c(-c5cccnc5N)nc5cccnc54)cc3)CC2)n1` [Example 92, 4-((1-(4-(2-(2-Aminopyridin-3-yl)-3H-imidazo[4,5-b]pyridin-3-yl)benzyl)piperidin-4-yl)amino)pyrimidine-2-carbonitrile], the IC50 is 15 to 60 nM.
Same read-out and setting: the figure for `CN(c1ccnc(C#N)n1)C1CCN(Cc2ccc(-n3c(-c4cccnc4N)nc4ccc(-c5ccccc5)nc43)cc2)CC1` [Example 156, 4-((1-(4-(2-(2-Aminopyridin-3-yl)-5-phenyl-3H-imidazo[4,5-b]pyridin-3-yl)benzyl)piperidin-4-yl)(methyl)amino)pyrimidine-2-carbonitrile] is 15 to 60 nM.
